Assay results: patent US8329166B2, “Pluripotent olfactory stem cells” (Academia Sinica, priority 2005, dated 2012)

Tested on: SDF-1
Assay: Western blot of SDF-1 in hypoxia-reoxygenation treated cells pre-treated with pathway inhibitors
Type: cell-based, human
Conditions: pre-treatment 10 μM
Procedure: Western blot was also performed to examine the expression of SDF-1, G-CSF, CXCR4, and G-CSF-R in the above-described cells that were treated with hypoxia-reoxygenation. Briefly, cells were placed in a hypoxic chamber (Bug Box, Ruskinn Technology, UK) at 37° C. for 12 hours. The chamber was continuously flushed with 95% N2-5% CO2 to maintain a gas phase PO2 of <1 mmHg (OM-14 oxygen monitor; SensorMedics Corporation, Yorba Linda, Calif.). After each hypoxic treatment, the cells were returned to a 37° C. normoxic incubator (95% air-5% CO2) for different time durations (30 minutes, 1 hour, 4 hours, 12 hours, 24 hours, and 48 hours) of reoxygenation. Cell samples were then collected at each time point and stored at -80° C. For Western blot, the samples were lysed in a buffer containing 320 mM sucrose, 5 mM HEPES, 1 μg/ml leupeptin, 1 μg/ml aprotinin. The resulting lysate were centrifuged at 13,000 g for 15 minutes. The pellet was resuspended in a sample buffer (62.5 mM Tris-HCl, 10% glycerol, 2% SDS, 0.1% bromophenol blue, and 50 mM DTT) and subjected to SDS-polyacrylamide gel (4-12%) electrophoresis. […] The intensity of each detected band was quantified using a Kodak Digital Science 1D Image Analysis System (Eastman Kodak, Rochester, N.Y.). […]

## COc1cccc(-c2cc(=O)c3ccccc3o2)c1N [PD98059]
  expression of SDF-1: stayed at the control level
